These results are taken from patent publication US10918626B2, “Method for improving pharmacokinetics” (Roche Palo Alto LLC, priority 2009, dated 2021).

Like-named read-outs stand apart in the source and are kept apart here.

By Cmax is commonly meant the maximum level reached in the sampled fluid or tissue. What is called AUC(0-inf) is total exposure, with the tail of the curve extrapolated.

One data set deals with T1, NS3/4A protease (Hepatitis C virus genotype 1a, UniProt P27958).
T1 construct: a serine protease encoded in the NS3 region
T1 sequence (P27958 1658-1711): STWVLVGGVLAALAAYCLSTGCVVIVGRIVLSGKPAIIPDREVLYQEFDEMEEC
T1 sequence (P27958 1027-1657): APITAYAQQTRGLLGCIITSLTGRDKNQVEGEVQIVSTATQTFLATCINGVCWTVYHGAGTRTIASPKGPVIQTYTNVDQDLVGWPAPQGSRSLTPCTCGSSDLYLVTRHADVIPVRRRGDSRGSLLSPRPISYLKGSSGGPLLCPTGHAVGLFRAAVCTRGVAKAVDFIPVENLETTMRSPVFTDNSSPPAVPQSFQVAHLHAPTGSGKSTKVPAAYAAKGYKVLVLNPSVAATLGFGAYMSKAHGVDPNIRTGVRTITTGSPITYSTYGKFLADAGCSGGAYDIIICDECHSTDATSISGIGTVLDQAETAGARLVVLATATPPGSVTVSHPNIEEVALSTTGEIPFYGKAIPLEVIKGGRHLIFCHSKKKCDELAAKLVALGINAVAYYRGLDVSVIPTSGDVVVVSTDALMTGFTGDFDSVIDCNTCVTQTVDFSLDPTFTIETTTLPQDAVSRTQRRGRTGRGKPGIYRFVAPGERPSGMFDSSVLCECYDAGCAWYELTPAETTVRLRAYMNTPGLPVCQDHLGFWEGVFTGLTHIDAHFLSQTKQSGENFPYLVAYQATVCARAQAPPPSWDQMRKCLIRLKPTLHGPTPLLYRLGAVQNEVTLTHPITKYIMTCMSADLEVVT
The experiment in a line: NS3/4A proteolysis inhibition. Format: biochemical. The note with it: read-out: 50% inhibitory concentration (IC50), NS3/4A proteolysis.

For the next data set, the system named is genotype 1 HCV replicon. Briefly: cell-based potency assay employing a genotype 1 HCV replicon. The note with it: Hepatitis C virus. (In general: Replicon systems follow genome replication, usually without infectious particles.)
The target in another data set is recombinant CYPs (Homo sapiens, UniProt P08684). The experiment in a line: metabolism by recombinant CYPs. In kind it is in vitro ADME. The text has this:
(§1) Therefore, a cytochrome P450 monooxygenase inhibitor in an amount effective to inhibit metabolism of the protease inhibitor could increase the bioavailability of R7227 compared to administration in the absence of the CYP inhibitor.

Data set [1] can be described thus: SAD study in healthy volunteers. In kind it is in vivo, human. An excerpt:
(A. A. Mathias et al., Clin. Pharmacol. Ther. 2009 85(1)64-70).

The subject of a further data set is CYP isozymes. The experiment in a line: cytochrome P450 phenotyping using chemical inhibitors. In kind it is in vitro ADME.
Source text: as §1

Data set [2] is described as follows: Pharmacokinetic enhancement of R7227 by ritonavir in healthy adults. In kind it is in vivo, human. The note with it: for concentration at 12 h / Cmax / AUC(0-inf): human, plasma; for concentration at 12 h: read-out: C12 h, GLSM; for Cmax / AUC(0-inf): N 12. As for the experimental part:
Subjects were screened for participation in this study within 21 days before dosing. The study enrolled 14 healthy volunteers (n=14 per group). The dosing schedule is illustrated below: [table] […] was formulated into clear size 10 oval soft gelatin capsules for oral administration at a strength of 100 mg per capsule (anhydrous free acid equivalent). The capsule fill solution consists of […]-001, polyethylene glycol PEG400 (Macrogol 400), and butylated hydroxytoluene (BHT). All excipients are compendial grade (NF or EP). Gelatin Type 195 (NF, EP) is used as the bulk gel mass for the capsule shell, with small amounts of sorbitol liquid 85/70/00 (NF, EP) and water (USP) used as plasticizers. All study medications were with a meal. […] was administered orally as a single dose of a 100 mg soft gel capsule on days 1, 3 and 12. […] Blood samples (5 mL) were collected to determine plasma concentrations of […] (and metabolites when assays were available) according to the following schedule Day 1, PK samples (5 mL) were be collected before […] dosing (predose) and at 0.5, 1, 1.5, 2, 2.5, 3, 3.5, 4, 6, 8, 12, and 24 hours after […] dosing; Days 3 and 12, PK samples (5 mL) were collected before […] dosing (predose) and at 0.5, 1, 1.5, 2, 2.5, 3, 3.5, 4, 6, 8, 12, 24, 36, and 48 hours after […] dosing. Primary PK parameters of […] that were determined are Cmax and AUC0→∞. Secondary PK parameters of […] that were measured include Tmax and AUC0→last, CL/F, t1/2, C12 hr and C24 h. Analysis of variance (ANOVA) was applied to the log-transformed primary pharmacokinetic parameters. Two-sided 90% confidence intervals for the ratios of the geometric means of the primary parameters (AUC0→∞ and Cmax of […]) were derived for the following comparisons: […] Analysis of variance (ANOVA) was used to analyze all primary study parameters using the following model: Yij=μ+τi+sj+εij where Yij denotes the PK parameter to be analyzed, μ denotes the general mean of the transformed variable, τi, the fixed effect of treatment; sj the random effect of subject; εij (error). The random deviations εij are assumed to be independent and normally distributed with zero mean and common variance σ^2. The group comparisons τ […]+Ritonavir-τ[…], the residual variance σ^2, and the 90% confidence limits for the group comparisons were estimated from the ANOVA model. For log-transformed variables (AUC0→∞ and Cmax), the ratio of true group means and the confidence limits for the corresponding ratio of means of the untransformed variables will be calculated by exponentiation of the least squares means differences and the confidence limits for the transformed values, respectively.

The next data set relates to HCV. As to conditions: monotherapy; cited from earlier work.
[3] abbreviates: po, 100 mg, Day 1 (alone), R7227 100 mg single oral dose.
Where [4] appears, read: multiple doses of ritonavir 100 mg every 12 hours.

Sequence of recombinant CYPs (P08684 whole entry): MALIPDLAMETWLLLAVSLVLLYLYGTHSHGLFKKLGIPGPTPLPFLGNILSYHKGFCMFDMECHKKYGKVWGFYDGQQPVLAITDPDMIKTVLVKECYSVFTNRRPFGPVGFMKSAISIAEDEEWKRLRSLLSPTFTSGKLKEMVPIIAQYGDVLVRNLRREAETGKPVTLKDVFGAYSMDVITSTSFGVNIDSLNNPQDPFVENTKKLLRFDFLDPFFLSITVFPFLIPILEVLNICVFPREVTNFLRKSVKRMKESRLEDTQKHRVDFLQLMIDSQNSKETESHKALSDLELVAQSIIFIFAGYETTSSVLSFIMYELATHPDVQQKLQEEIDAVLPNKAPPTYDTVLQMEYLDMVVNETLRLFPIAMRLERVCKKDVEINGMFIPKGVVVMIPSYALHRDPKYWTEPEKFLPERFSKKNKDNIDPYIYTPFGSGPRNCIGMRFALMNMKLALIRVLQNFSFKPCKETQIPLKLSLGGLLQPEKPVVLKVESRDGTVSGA

On to `CC(C)(C)OC(=O)N[C@H]1CCCCC/C=C\[C@@H]2C[C@@]2(C(=O)NS(=O)(=O)C2CC2)NC(=O)[C@@H]2C[C@@H](OC(=O)N3Cc4cccc(F)c4C3)CN2C1=O` [R7227], for which the IC50 was at most 0.225 nM at NS3/4A protease and 1.77 nM in the data set on genotype 1 HCV replicon. Also, the “metabolism by recombinant CYPs” value on recombinant CYPs is listed as “only CYP3A4 metabolized R7227 to an extent that could influence the pharmacokinetics”. Further, the “highest safe and tolerable dose” value in data set [1] came out at 1600 mg. Further, the “CYP isozymes participating in metabolism” value in the data set with CYP isozymes is “multiple CYP isozymes including 3A4, 2C19, 1A2, 2D6, and 2C9 participate in the metabolism”. The “AUC0→∞, ratio of GLSM (90% CI)” value in data set [2] (Day 3 vs Day 1) is on record as 5.70 (4.07, 7.99); in data set [2] (Day 12 vs Day 1), 5.50 (4.05, 7.48). Moreover, the “Cmax, ratio of GLSM (90% CI)” value in data set [2] (Day 3 vs Day 1) was 3.14 (1.87, 5.25); in data set [2] (Day 12 vs Day 1), 3.25 (2.12, 4.96). Also, the “C12 h, ratio of GLSM (90% CI)” value is 50.6 (25.6, 100) in data set [2] (Day 3 vs Day 1, N 8, non-missing non-BLQ data); 65.2 (34.8, 122) in data set [2] (Day 3 vs Day 1, N 12, includes extrapolated day 1 values); 26.9 (17.7, 41.0) in data set [2] (Day 12 vs Day 1, N 8, non-missing non-BLQ data); 42.4 (25.7, 70.0) in data set [2] (Day 12 vs Day 1, N 12, includes extrapolated day 1 values). Further, the concentration at 12 h was 0.02 ng/mL in data set [2] (oral, 100 mg, Day 1 (alone), N 8, non-missing non-BLQ data from all three treatment days); 0.01 ng/mL in data set [2] (oral, 100 mg, Day 1 (alone), N 12, includes extrapolated C12 h values from 4 subjects with BLQ values on day 1); 1 ng/mL in data set [2] (oral, Day 3 (with ritonavir single dose), N 8, non-missing non-BLQ data); 0.55 ng/mL in data set [2] (oral, Day 3 (with ritonavir single dose), N 12 (set including extrapolated day 1 values)); 0.53 ng/mL in data set [2] (oral, Day 12 (with ritonavir multiple dose), N 8, non-missing non-BLQ data); 0.36 ng/mL in data set [2] (oral, Day 12 (with ritonavir multiple dose), N 12 (set including extrapolated day 1 values)). Moreover, the peak concentration (Cmax) came to 26.4 ng/mL in data set [2] (oral, Day 3 (with ritonavir single dose)); 27.3 ng/mL in data set [2] (oral, Day 12 (with ritonavir multiple dose)); 8.4 ng/mL in data set [2] (setting [3]). Besides, the AUC(0-inf) was 14.4 ng·h/mL in data set [2] (setting [3]); 82 ng·h/mL in data set [2] (po, 100 mg, Day 3 (with ritonavir single dose), R7227 100 mg oral); 79.4 ng·h/mL in data set [2] (po, 100 mg, Day 12 (with ritonavir multiple dose), R7227 100 mg oral). Further, in data set [2] (setting [4]), the “increase of R7227 AUC0→∞” value was “approximately 5.5 fold”. The “increase of R7227 Cmax” value in data set [2] (setting [4]) is reported as around 3.25 fold.

As to `NC(=O)c1ncn([C@@H]2O[C@H](CO)[C@@H](O)[C@H]2O)n1` [ribavirin, 1-((2R,3R,4S,5R)-3,4-dihydroxy-5-hydroxymethyl-tetrahydro-furan-2-yl)-1H-[1,2,4]triazole-3-carboxylic acid amide], in the data set on HCV, the “patients with serum amino transferase levels reduced to normal” value is given as 40%.
